In patent US20240254138A1, “TRICYCLIC PYRIMIDINES AS CYCLIN-DEPENDENT KINASE 7 (CDK7) INHIBITORS” (JANSSEN PHARMACEUTICA NV, priority 2021, published 2024):
Like-named read-outs stand apart in the source and are kept apart here.

Assays:
[1] = test system: RNA Polymerase II Serine 5 phosphorylation in A549 cells overexpressing CDK7-mutant (C312S); experiment: Imaging-based cellular RNA PolII Ser5 phosphorylation assay in A549 cells overexpressing CDK7-mutant (C312S); assay type: cell-based, human; conditions: for IC50: Homo sapiens; for CDK7_A549 mutant hCDK7(pIC50): A549 cells overexpressing CDK7-mutant (C312S)
In short: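 Readout was automated imaging of anti-phospho-Ser5 Rpb1 CTD immunofluorescence, with IC50 fitted to % control versus concentration. Cells were A549 stably overexpressing non-covalently targetable CDK7 C312S alongside wild-type, exposed to compound 3 h at 37 °C. DMSO and 10 μM reference compound served as controls.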

[2] = test system: RNA Polymerase II Serine 5 phosphorylation (Rpb1 CTD, downstream substrate of CDK7) in A549 cells; experiment: Imaging-based cellular RNA PolII Ser5 phosphorylation assay in A549 cells; assay type: cell-based, human; conditions: for IC50: Homo sapiens; for CDK7_A549 Wild-type CDK7 (pIC50): A549 cells
In short: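 IC50 derived by fitting % control (DMSO high, 10 μM reference low) against concentration, with Hill slope. Readout: high-content imaging of phospho-Ser5 Rpb1 CTD antibody staining in fixed, permeabilized A549 cells exposed to compound 3 h after 20 h culture in 1% FBS DMEM.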

[3] = target: CDK7/cyclinH/MAT1 trimeric complex (Homo sapiens, UniProt P50613); experiment: In vitro CDK7 assay, potency of irreversible covalent inhibitors (kinact/KI), coupled PK/LDH ADP readout at 340 nm; conditions: for Ki: CDK7 (20 nM enz.) (KI, μM)
[4] = A549, A549 cells overexpressing CDK7-mutant (C312S), RNA PolII Ser5 phosphorylation, averaged over all measurements, read-out: CDK7_A549 mutant hCDK7(pIC50) (converted)
[5] = A549, A549 cells, wild-type CDK7, RNA PolII Ser5 phosphorylation, averaged over all measurements, read-out: CDK7_A549 Wild-type CDK7 (pIC50) (converted)
[6] = read-out: CDK7 (20 nM enz.) (kinact, s^−1), 20 nM enzyme
[7] = read-out: CDK7 (20 nM enz.) (kinact/KI, M^−1*s^−1), 20 nM enzyme
[8] = read-out: CDK7 (20 nM enz.) (kobs/[I], M^−1*s^−1), 20 nM enzyme
[9] = RNA PolII Ser5 phosphorylation, averaged over all measurements
[10] = wild-type CDK7, RNA PolII Ser5 phosphorylation, averaged over all measurements

CDK7/cyclinH/MAT1 trimeric complex, sequence (P50613 whole entry): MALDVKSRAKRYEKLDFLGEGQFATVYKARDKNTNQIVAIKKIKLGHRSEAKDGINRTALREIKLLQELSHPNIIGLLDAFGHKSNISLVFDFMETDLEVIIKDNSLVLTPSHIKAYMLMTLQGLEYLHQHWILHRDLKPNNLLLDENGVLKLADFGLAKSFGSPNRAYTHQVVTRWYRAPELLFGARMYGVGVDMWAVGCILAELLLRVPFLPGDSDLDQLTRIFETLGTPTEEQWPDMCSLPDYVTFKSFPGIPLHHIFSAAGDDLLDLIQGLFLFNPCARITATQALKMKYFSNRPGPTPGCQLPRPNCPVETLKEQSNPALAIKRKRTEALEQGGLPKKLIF
CDK7/cyclinH/MAT1 trimeric complex, sequence (P51946 whole entry partner): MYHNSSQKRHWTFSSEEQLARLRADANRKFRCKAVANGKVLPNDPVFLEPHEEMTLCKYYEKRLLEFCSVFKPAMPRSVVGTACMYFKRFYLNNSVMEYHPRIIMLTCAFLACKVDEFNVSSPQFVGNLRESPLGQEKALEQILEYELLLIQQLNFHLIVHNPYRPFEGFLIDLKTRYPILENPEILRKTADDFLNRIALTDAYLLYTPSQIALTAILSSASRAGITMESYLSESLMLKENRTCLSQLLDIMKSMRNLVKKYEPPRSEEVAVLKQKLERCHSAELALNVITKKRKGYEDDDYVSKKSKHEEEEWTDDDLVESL
CDK7/cyclinH/MAT1 trimeric complex, sequence (P51948 whole entry partner): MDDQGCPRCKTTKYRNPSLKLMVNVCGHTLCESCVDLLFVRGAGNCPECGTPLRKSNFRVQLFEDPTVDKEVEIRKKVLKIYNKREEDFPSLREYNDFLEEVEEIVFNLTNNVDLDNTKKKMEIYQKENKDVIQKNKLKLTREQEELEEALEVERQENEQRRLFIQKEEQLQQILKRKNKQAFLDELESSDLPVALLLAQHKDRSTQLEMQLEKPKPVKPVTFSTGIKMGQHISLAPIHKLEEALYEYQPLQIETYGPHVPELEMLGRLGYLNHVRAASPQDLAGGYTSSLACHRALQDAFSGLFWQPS

Row | Compound | IC50 [1, 4] | IC50 [2, 5] | Ki ([3]; 20 nM enzyme) | kinact [3, 6] | kinact/KI [3, 7] | further results
1 | C=CC(=O)N1CC(N2CCC(c3cc4c(c(C(N)=O)c3)OCc3c(C5CCOCC5)ccnc3N4)CC2)C1 [Compound 158] | > 3980 nM | 126 nM | 0.204 µM | 7.68e-05 s⁻¹ | 377 M⁻¹ s⁻¹ | –
2 | C=CC(=O)N1CC(N2CCC(O)(c3cc(C)c4c(c3)Nc3nccc(C5CCOCC5)c3CO4)CC2)C1 [Compound 159] | > 10000 nM | 70.8 nM | 0.144 µM | 0.000115 s⁻¹ | 794 M⁻¹ s⁻¹ | –
3 | C=CC(=O)Nc1ccc(-c2cc3c(cn2)OCc2c(N4CCOCC4)ccnc2N3)cc1 [Compound 160] | > 10000 nM | 64.6 nM | 0.0393 µM | 6.88e-05 s⁻¹ | 1750 M⁻¹ s⁻¹ | –
4 | C#Cc1cc2c(cc1C1CCN(C3CN(C(=O)C=C)C3)CC1)Nc1nccc(N3CCOCC3)c1C(C)O2 (stereo not drawn) [Compound 161] | > 10000 nM | 123 nM | 0.0363 µM | 3.09e-05 s⁻¹ | 851 M⁻¹ s⁻¹ | –
5 | C=CC(=O)N1CC2(CC(c3cc(F)c4c(c3)Nc3nccc(N5CCOCC5)c3CO4)C2)C1 [Compound 162] | > 10000 nM | 182 nM | 0.149 µM | 4.88e-05 s⁻¹ | 327 M⁻¹ s⁻¹ | –
6 | C=CC(=O)N1CCC(N2CC(c3cc4c(c(C)n3)OCc3c(N5CCOCC5)ccnc3N4)C2)CC1 [Compound 165] | – | – | 0.0638 µM | – | – | IC50 ([1]; A549, read-out: CDK7_A549 mutant hCDK7(pIC50) (converted)): 6030 nM; IC50 ([2]; A549, read-out: CDK7_A549 Wild-type CDK7 (pIC50) (converted)): 57.5 nM; kinact ([3]; read-out: CDK7 (20 nM enz.) (kinact, s^−1)): 5.16e-05 s⁻¹; kinact/KI ([3]; read-out: CDK7 (20 nM enz.) (kinact/KI, M^−1*s^−1)): 808 M⁻¹ s⁻¹
7 | C=CC(=O)N1CC(N2CC(c3cc(F)c4c(c3)Nc3nccc(N5CCOCC5)c3CO4)C2)C1 [Compound 166] | > 10000 nM | 75.9 nM | 0.0262 µM | 5.16e-05 s⁻¹ | 1970 M⁻¹ s⁻¹ | –
8 | C=CC(=O)N1CC(N2CC(c3ccc4c(c3)Nc3nccc(C5CCOCC5)c3CO4)C2)C1 [Compound 167] | > 10000 nM | 105 nM | 0.0325 µM | 5.4e-05 s⁻¹ | 1660 M⁻¹ s⁻¹ | –
9 | C#Cc1cc2c(cc1C1CCN(C3CN(C(=O)C=C)C3)CC1)Nc1nccc(C3CCOCC3)c1C(C)O2 (stereo not drawn) [Compound 169] | > 10000 nM | 53.7 nM | 0.0532 µM | 3.63e-05 s⁻¹ | 682 M⁻¹ s⁻¹ | –
10 | C=CC(=O)N1CCC(N2CC(c3cc4c(c(C)n3)OCc3c(-c5cnn(C)c5)ccnc3N4)C2)CC1 [Compound 170] | 7760 nM | 120 nM | 0.125 µM | 3.7e-05 s⁻¹ | 296 M⁻¹ s⁻¹ | –
11 | C=CC(=O)N1CC(N2CCC(c3cc4c(cc3C#N)OCc3c(N5CCOCC5)ccnc3N4)CC2)C1 [Compound 174] | > 10000 nM | 324 nM | 0.143 µM | 5.74e-05 s⁻¹ | 401 M⁻¹ s⁻¹ | –
12 | C#Cc1cc2c(cc1C1CCN(C3CN(C(=O)C=C)C3)CC1)Nc1nccc(N3CCOCC3)c1CO2 [Compound 175] | > 10000 nM | 240 nM | 0.0695 µM | 4.03e-05 s⁻¹ | 580 M⁻¹ s⁻¹ | –
13 | C=CC(=O)N1CC(N2CC(c3ccc4c(c3)Nc3nccc(-c5cnn(C)c5)c3CO4)C2)C1 [Compound 176] | > 10000 nM | 186 nM | 0.0372 µM | 5.38e-05 s⁻¹ | 1440 M⁻¹ s⁻¹ | –
14 | C=CC(=O)Nc1ccc(-c2ccc3c(c2)Nc2nccc(N4CCOCC4)c2CO3)cn1 [Compound 178] | 6760 nM | 22.4 nM | – | – | – | kinact/KI [3, 8]: 1910 M⁻¹ s⁻¹
15 | C#Cc1cc(C2CCN(C3CN(C(=O)C=C)C3)CC2)cc2c1OC(C)c1c(N3CCOCC3)ccnc1N2 (stereo not drawn) [Compound 181] | > 10000 nM | ~20.9 nM | – | – | – | kinact/KI [3, 8]: 864 M⁻¹ s⁻¹
16 | C=C(F)C(=O)N1CC(N2CCC(c3ccc4c(c3)Nc3nccc(C5CCOCC5)c3CO4)CC2)C1 [Compound 188] | > 10000 nM | 1070 nM | 0.507 µM | 3.02e-05 s⁻¹ | 59.6 M⁻¹ s⁻¹ | –
17 | C=CC(=O)N1CC(N2CCC(c3cc(F)c4c(c3)Nc3nccc(-c5cnn(C)c5)c3CO4)CC2)C1 [Compound 189] | – | – | – | – | – | CDK7_A549 mutant hCDK7(pIC50) [1, 9]: <5; CDK7_A549 Wild-type CDK7 (pIC50) [2, 10]: 7.37; kinact/KI [3, 8]: 1440 M⁻¹ s⁻¹
18 | C=CC(=O)N1CC(n2cc(-c3cc(C)c4c(c3)Nc3nccc(N5CCOCC5)c3CO4)cn2)C1 [Compound 190] | ~8910 nM | 33.9 nM | – | – | – | kinact/KI [3, 8]: 1250 M⁻¹ s⁻¹
19 | C=CC(=O)N1CC(N2CC(c3ccc4c(c3)Nc3nccc(-c5cnn(C)c5)c3C(C)O4)C2)C1 (stereo not drawn) [Compound 197] | > 10000 nM | 123 nM | 0.134 µM | 7.96e-05 s⁻¹ | 596 M⁻¹ s⁻¹ | –

Further lines, with some results ahead:

Row | IC50 [1, 4] | IC50 [2, 5] | Ki ([3]; 20 nM enzyme) | kinact [3, 6] | kinact/KI [3, 7] | Compound | further results
20 | > 10000 nM | 240 nM | 0.365 µM | 4.47e-05 s⁻¹ | 122 M⁻¹ s⁻¹ | C=CC(=O)N1CC(N2CC(c3cc4c(c(C)n3)OCc3c(-c5cnn(C)c5)ccnc3N4)C2)C1 [Compound 198] | –
21 | > 10000 nM | 93.3 nM | 0.119 µM | 4.74e-05 s⁻¹ | – | C=CC(=O)N1CC(N2CC(c3cc4c(c(C)n3)OCc3c(N5CCOCC5)ccnc3N4)C2)C1 [Compound 205] | CDK7 (20 nM enz.) (kinact/KI, M^−1*s^−1) ([3]; 20 nM enzyme): 399.588 M⁻¹ s⁻¹
22 | > 10000 nM | 64.6 nM | – | – | – | C=CC(=O)N1CC(N2CC(c3cc(C)c4c(c3)Nc3nccc(N5CCOCC5)c3CO4)C2)C1 [Compound 215] | kinact/KI [3, 8]: 753 M⁻¹ s⁻¹
23 | – | – | 0.101 µM | – | – | C=CC(=O)N1CC(N2CCC(c3cc4c(c(C)n3)OCc3c(N5CCOCC5)ccnc3N4)CC2)C1 [Compound 217] | CDK7_A549 mutant hCDK7(pIC50) [1, 9]: <5; CDK7_A549 Wild-type CDK7 (pIC50) [2, 10]: 7.15; CDK7 (20 nM enz.) (kinact, s^−1) ([3]; 20 nM enzyme): 8.548e-05 s⁻¹; CDK7 (20 nM enz.) (kinact/KI, M^−1*s^−1) ([3]; 20 nM enzyme): 845.246 M⁻¹ s⁻¹
24 | > 10000 nM | 126 nM | 0.337 µM | 6.24e-05 s⁻¹ | 185 M⁻¹ s⁻¹ | C=CC(=O)N1CC[C@H](N2CC(c3cc4c(c(C)n3)OCc3c(N5CCOCC5)ccnc3N4)C2)[C@H](F)C1 [Compound 225] | –
25 | 9550 nM | 70.8 nM | – | – | – | C=CC(=O)N1CC(N2CC(c3cc4c(c(C(F)(F)F)n3)OCc3c(N5CCOCC5)ccnc3N4)C2)C1 [Compound 235] | CDK7 (20 nM enz.) (kobs/[I], M^−1*s^−1) ([3]; 20 nM enzyme): 962.5 M⁻¹ s⁻¹
26 | > 10000 nM | 132 nM | 0.0731 µM | 3.42e-05 s⁻¹ | 468 M⁻¹ s⁻¹ | C=CC(=O)N1CC(N2CCN(c3cc4c(c(C)n3)OCc3c(N5CCOCC5)ccnc3N4)CC2)C1 [Compound 237] | –
27 | ~7940 nM | 72.4 nM | 0.0398 µM | 4.37e-05 s⁻¹ | 1100 M⁻¹ s⁻¹ | C=CC(=O)N1CC(n2cc(-c3cc4c(c(C)n3)OCc3c(N5CCOCC5)ccnc3N4)cn2)C1 [Compound 244] | –
28 | > 10000 nM | 174 nM | 0.307 µM | 8.51e-05 s⁻¹ | 277 M⁻¹ s⁻¹ | C=CC(=O)N1CC(N2CCN(c3cc4c(cn3)OCc3c(N5CCOCC5)ccnc3N4)CC2)C1 [Compound 248] | –
29 | > 10000 nM | 1820 nM | 0.564 µM | 1.06e-05 s⁻¹ | 18.9 M⁻¹ s⁻¹ | C=CC(=O)N1CCC2(CC1)CC(c1cc(F)c3c(c1)Nc1nccc(N4CCOCC4)c1CO3)C2 [Compound 250] | –
30 | 6310 nM | 50.1 nM | – | – | – | C=CC(=O)N1CC(N2CC(c3cc(C#N)c4c(c3)Nc3nccc(N5CCOCC5)c3CO4)C2)C1 [Compound 253] | kinact/KI [3, 8]: 989 M⁻¹ s⁻¹
31 | – | – | 0.0256 µM | – | – | C=CC(=O)N1CC(N2CCC(c3ccc4c(c3)Nc3nccc(-c5cnn(C)c5)c3C(C)(C)O4)CC2)C1 [Compound 260] | CDK7_A549 mutant hCDK7(pIC50) [1, 9]: <5; CDK7_A549 Wild-type CDK7 (pIC50) [2, 10]: 7.1; CDK7 (20 nM enz.) (kinact, s^−1) ([3]; 20 nM enzyme): 4.64e-05 s⁻¹; CDK7 (20 nM enz.) (kinact/KI, M^−1*s^−1) ([3]; 20 nM enzyme): 1810.44 M⁻¹ s⁻¹
32 | > 10000 nM | ~138 nM | 0.0439 µM | 3.44e-05 s⁻¹ | 782 M⁻¹ s⁻¹ | C=CC(=O)N1CC(N2CC(c3cc4c(c(C)n3)OC(C)c3c(N5CCOCC5)ccnc3N4)C2)C1 (stereo not drawn) [Compound 264] | –
33 | ~7240 nM | 23.4 nM | – | – | – | C=CC(=O)N1CC(N2CC(c3cc4c(c(C(F)(F)F)c3)OCc3c(N5CCOCC5)ccnc3N4)C2)C1 [Compound 267] | kinact/KI [3, 8]: 977 M⁻¹ s⁻¹
34 | > 10000 nM | 162 nM | 0.103 µM | 4.28e-05 s⁻¹ | 417 M⁻¹ s⁻¹ | CC#CC(=O)N1CC(N2CCC(c3ccc4c(c3)Nc3nccc(C5CCOCC5)c3CO4)CC2)C1 [Compound 269] | –
35 | – | – | 0.0474 µM | – | – | C=CC(=O)N1CC(N2CC(c3cc4c(c(C)n3)OCc3c(N5CCOCC5)ccnc3N4)C2)C1 [Compound 273] | CDK7_A549 mutant hCDK7(pIC50) [1, 9]: <5; CDK7_A549 Wild-type CDK7 (pIC50) [2, 10]: 6.94; CDK7 (20 nM enz.) (kinact, s^−1) ([3]; 20 nM enzyme): 4.486e-05 s⁻¹; CDK7 (20 nM enz.) (kinact/KI, M^−1*s^−1) ([3]; 20 nM enzyme): 945.57 M⁻¹ s⁻¹
